# From PMC10648852, “Molecular drivers of resistance to sulbactam-durlobactam in contemporary clinical isolates of Acinetobacter baumannii” (Antimicrobial Agents and Chemotherapy, 2023)
# Like-named read-outs stand apart in the source and are kept apart here.
# What was measured:
# Assay in all cases: microbe, parasite or virus in culture
# [1] = tested on: ABC clinical isolates with SUL-DUR MIC > 4 µg/mL; format: cell-based, Acinetobacter baumannii-calcoaceticus complex; settings: Acinetobacter
# Protocol: (§1) The following report describes the genomic analysis of these isolates for likely resistance mechanisms. Biochemical analysis of purified PBP3 and phenotypic analyses of both clinical and isogenic strains were also conducted to determine the relative impact of key resistance determinants to SUL-DUR antibacterial activity.
# (§2) Antimicrobial susceptibility testing was performed using broth microdilution following standardized methods established by the Clinical Laboratory Standards Institute (CLSI) ([35], [36]). […] MIC values were interpreted using CLSI breakpoints for all antimicrobial agents except those for which CLSI breakpoints are not available ([35]). SUL-DUR was tested as twofold dilutions of sulbactam in combination with a fixed concentration of 4 µg/mL durlobactam ([35]).
# [2] = tested on: A. baumannii clinical isolates; format: cell-based; settings: Acinetobacter baumannii
# Protocol: as §1, §2
# [3] = tested on: A. nosocomialis clinical isolate; format: cell-based; settings: Acinetobacter nosocomialis, isolate ARC7023 (IHMA 2118812), France, BSI, 2019, read-out: MIC
# Protocol: as §1, §2
# [4] = tested on: A. pittii clinical isolates; format: cell-based; settings: Acinetobacter pittii
# Protocol: as §1, §2
smiles,measurement,setting,value
"CN(C)c1cc(NC(=O)CNC(C)(C)C)c(O)c2c1C[C@H]1C[C@H]3[C@H](N(C)C)C(O)=C(C(N)=O)C(=O)[C@@]3(O)C(O)=C1C2=O [TIG, tigecycline]",MIC50,[1],1 µg/mL
same,MIC90,[1],2 µg/mL
same,MIC,[1]; read-out: MIC Max,16 µg/mL
same,MIC,[1]; read-out: MIC Min,0.13 µg/mL
same,MIC,"[2]; isolate ARC6644 (IHMA 1420327), Mexico, UTI, 2016, read-out: MIC",1 µg/mL
same,MIC,"[2]; isolate ARC6645 (IHMA 1435703), France, UTI, 2016, read-out: MIC",0.25 µg/mL
same,MIC,"[2]; isolate ARC6646 (IHMA 1484127), United States, RTI, 2016, read-out: MIC",1 µg/mL
same,MIC,"[2]; isolate ARC6647 (IHMA 1386786), Argentina, RTI, 2016, read-out: MIC",0.12 µg/mL
same,MIC,"[2]; isolate ARC6648 (IHMA 1407634), Spain, RTI, 2016, read-out: MIC",1 µg/mL
same,MIC,"[2]; isolate ARC6650 (IHMA 1457337), Argentina, RTI, 2016, read-out: MIC",1 µg/mL
same,MIC,"[2]; isolate ARC6652 (IHMA 1465642), Belgium, RTI, 2016, read-out: MIC",0.25 µg/mL
same,MIC,"[2]; isolate ARC6653 (IHMA 1308777), Vietnam, RTI, 2016, read-out: MIC",1 µg/mL
same,MIC,"[2]; isolate ARC6799 (IHMA 1562935), Spain, UTI, 2017, read-out: MIC",1 µg/mL
same,MIC,"[2]; isolate ARC6800 (IHMA 1557526), Turkey, RTI, 2017, read-out: MIC",1 µg/mL
same,MIC,"[2]; isolate ARC6801 (IHMA 1662094), Thailand, RTI, 2017, read-out: MIC",1 µg/mL
same,MIC,"[2]; isolate ARC6802 (IHMA 1557073), Spain, UTI, 2017, read-out: MIC",1 µg/mL
same,MIC,"[2]; isolate ARC6803 (IHMA 1589408), Belgium, UTI, 2017, read-out: MIC",1 µg/mL
same,MIC,"[2]; isolate ARC6805 (IHMA 1558650), United States, RTI, 2017, read-out: MIC",1 µg/mL
same,MIC,"[2]; isolate ARC6808 (IHMA 1557168), Spain, RTI, 2017, read-out: MIC",1 µg/mL
same,MIC,"[2]; isolate ARC6809 (IHMA 1699528), Guatemala, RTI, 2017, read-out: MIC",0.5 µg/mL
same,MIC,"[2]; isolate ARC6810 (IHMA 1699548), Guatemala, RTI, 2017, read-out: MIC",1 µg/mL
same,MIC,"[2]; isolate ARC6812 (IHMA 1699530), Guatemala, RTI, 2017, read-out: MIC",0.5 µg/mL
same,MIC,"[2]; isolate ARC6813 (IHMA 1699543), Guatemala, UTI, 2017, read-out: MIC",0.25 µg/mL
same,MIC,"[2]; isolate ARC6814 (IHMA 1699512), Guatemala, RTI, 2017, read-out: MIC",1 µg/mL
same,MIC,"[2]; isolate ARC6815 (IHMA 1699513), Guatemala, RTI, 2017, read-out: MIC",0.5 µg/mL
same,MIC,"[2]; isolate ARC6816 (IHMA 1699521), Guatemala, RTI, 2017, read-out: MIC",2 µg/mL
same,MIC,"[2]; isolate ARC6817 (IHMA 1699523), Guatemala, RTI, 2017, read-out: MIC",0.5 µg/mL
same,MIC,"[2]; isolate ARC6818 (IHMA 1683261), Thailand, RTI, 2017, read-out: MIC",0.25 µg/mL
same,MIC,"[2]; isolate ARC6819 (IHMA 1683267), Thailand, RTI, 2017, read-out: MIC",2 µg/mL
same,MIC,"[2]; isolate ARC6820 (IHMA 1647876), Argentina, RTI, 2017, read-out: MIC",0.5 µg/mL
same,MIC,"[2]; isolate ARC6821 (IHMA 1699517), Guatemala, RTI, 2017, read-out: MIC",0.25 µg/mL
same,MIC,"[2]; isolate ARC6822 (IHMA 1637626), Guatemala, RTI, 2017, read-out: MIC",0.25 µg/mL
same,MIC,"[2]; isolate ARC6823 (IHMA 1620872), Greece, SSSI, 2017, read-out: MIC",1 µg/mL
same,MIC,"[2]; isolate ARC6824 (IHMA 1625487), Argentina, BSI, 2017, read-out: MIC",0.5 µg/mL
same,MIC,"[2]; isolate ARC6937 (IHMA 1562926), Spain, UTI, 2017, read-out: MIC",1 µg/mL
same,MIC,"[2]; isolate ARC6950 (IHMA 1820064), Israel, RTI, 2018, read-out: MIC",0.5 µg/mL
same,MIC,"[2]; isolate ARC6953 (IHMA 1909827), Turkey, IAI, 2018, read-out: MIC",0.5 µg/mL
same,MIC,"[2]; isolate ARC6954 (IHMA 1838192), Guatemala, SSSI, 2018, read-out: MIC",0.5 µg/mL
same,MIC,"[2]; isolate ARC6955 (IHMA 1825425), United States, RTI, 2018, read-out: MIC",0.5 µg/mL
same,MIC,"[2]; isolate ARC7008 (IHMA 2009813), Thailand, BSI, 2019, read-out: MIC",1 µg/mL
same,MIC,"[2]; isolate ARC7009 (IHMA 2043611), United States, UTI, 2019, read-out: MIC",1 µg/mL
same,MIC,"[2]; isolate ARC7010 (IHMA 2043398), United States, RTI, 2019, read-out: MIC",1 µg/mL
same,MIC,"[2]; isolate ARC7011 (IHMA 2104553), Germany, RTI, 2019, read-out: MIC",2 µg/mL
same,MIC,"[2]; isolate ARC7012 (IHMA 2010001), Thailand, RTI, 2019, read-out: MIC",1 µg/mL
same,MIC,"[2]; isolate ARC7013 (IHMA 1962831), Argentina, RTI, 2019, read-out: MIC",0.12 µg/mL
same,MIC,"[2]; isolate ARC7014 (IHMA 2045328), Guatemala, IAI, 2019, read-out: MIC",1 µg/mL
same,MIC,"[2]; isolate ARC7015 (IHMA 2045327), Guatemala, UTI, 2019, read-out: MIC",0.5 µg/mL
same,MIC,"[2]; isolate ARC7016 (IHMA 2148441), Brazil, BSI, 2019, read-out: MIC",0.5 µg/mL
same,MIC,"[2]; isolate ARC7017 (IHMA 2148446), Brazil, BSI, 2019, read-out: MIC",0.5 µg/mL
same,MIC,"[2]; isolate ARC7018 (IHMA 2045454), Guatemala, IAI, 2019, read-out: MIC",1 µg/mL
same,MIC,"[2]; isolate ARC7019 (IHMA 2114463), Thailand, RTI, 2019, read-out: MIC",16 µg/mL
same,MIC,"[2]; isolate ARC7020 (IHMA 2045326), Guatemala, RTI, 2019, read-out: MIC",1 µg/mL
same,MIC,"[2]; isolate ARC7021 (IHMA 1966347), Guatemala, RTI, 2019, read-out: MIC",0.5 µg/mL
same,MIC,"[2]; isolate ARC7022 (IHMA 2045319), Guatemala, IAI, 2019, read-out: MIC",2 µg/mL
same,MIC,"[2]; isolate ARC7024 (IHMA 2059448), Turkey, RTI, 2019, read-out: MIC",2 µg/mL
same,MIC,"[2]; isolate ARC7025 (IHMA 2002121), Spain, RTI, 2019, read-out: MIC",1 µg/mL
same,MIC,"[2]; isolate ARC7026 (IHMA 2104494), Guatemala, BSI, 2019, read-out: MIC",1 µg/mL
same,MIC,"[2]; isolate ARC7082 (IHMA 2160640), Belgium, BSI, 2020, read-out: MIC",1 µg/mL
same,MIC,"[2]; isolate ARC7083 (IHMA 2163687), United States, RTI, 2020, read-out: MIC",2 µg/mL
same,MIC,"[2]; isolate ARC7084 (IHMA 2189596), Germany, RTI, 2020, read-out: MIC",2 µg/mL
same,MIC,"[2]; isolate ARC7085 (IHMA 2205747), Guatemala, IAI, 2020, read-out: MIC",0.5 µg/mL
same,MIC,"[2]; isolate ARC7086 (IHMA 2207563), Israel, RTI, 2020, read-out: MIC",2 µg/mL
same,MIC,"[2]; isolate ARC7088 (IHMA 2215554), Turkey, BSI, 2020, read-out: MIC",2 µg/mL
same,MIC,"[2]; isolate ARC7089 (IHMA 2240345), Argentina, BSI, 2020, read-out: MIC",1 µg/mL
same,MIC,"[2]; isolate ARC7090 (IHMA 2244410), Poland, RTI, 2020, read-out: MIC",2 µg/mL
same,MIC,"[2]; isolate ARC7091 (IHMA 2244564), Australia, RTI, 2020, read-out: MIC",0.5 µg/mL
same,MIC,"[2]; isolate ARC7092 (IHMA 2258772), United States, BSI, 2020, read-out: MIC",1 µg/mL
same,MIC,"[2]; isolate ARC7093 (IHMA 2258783), United States, RTI, 2020, read-out: MIC",2 µg/mL
same,MIC,"[2]; isolate ARC7094 (IHMA 2296423), Turkey, RTI, 2020, read-out: MIC",1 µg/mL
same,MIC,"[2]; isolate ARC7095 (IHMA 2320843), Turkey, BSI, 2020, read-out: MIC",0.5 µg/mL
same,MIC,"[2]; isolate ARC7156 (IHMA 2455450), Greece, RTI, 2021, read-out: MIC",2 µg/mL
same,MIC,"[2]; isolate ARC7158 (IHMA 2523738), Italy, BSI, 2021, read-out: MIC",1 µg/mL
same,MIC,"[2]; isolate ARC7159 (IHMA 2456229), Malaysia, RTI, 2021, read-out: MIC",1 µg/mL
same,MIC,"[2]; isolate ARC7160 (IHMA 2458626), Thailand, RTI, 2021, read-out: MIC",2 µg/mL
same,MIC,"[2]; isolate ARC7161 (IHMA 2429252), Ukraine, RTI, 2021, read-out: MIC",2 µg/mL
same,MIC,"[2]; isolate ARC7162 (IHMA 2411847), United States, BSI, 2021, read-out: MIC",1 µg/mL
same,MIC,"[2]; isolate ARC7163 (IHMA 2477704), United States, BSI, 2021, read-out: MIC",1 µg/mL
same,MIC,[3],0.25 µg/mL
same,MIC,"[4]; isolate ARC6949 (IHMA 1898982), Romania, RTI, 2018, read-out: MIC",0.5 µg/mL
same,MIC,"[4]; isolate ARC6951 (IHMA 1776233), Philippines, RTI, 2018, read-out: MIC",0.25 µg/mL
same,MIC,"[4]; isolate ARC6952 (IHMA 1899008), Romania, RTI, 2018, read-out: MIC",1 µg/mL
same,MIC,"[4]; isolate ARC7087 (IHMA 2212062), Colombia, BSI, 2020, read-out: MIC",0.25 µg/mL
